The values below are quoted from earlier work in US20210154215A1, “Antifungal Cuticle Oil Composition” (Zenvision Pharma LLP, priority 2018, published 2021).

Regarding `CN(C/C=C/C#CC(C)(C)C)Cc1cccc2ccccc12.Cl` [Terbinafine hydrochloride, (E)-N-(6,6-dimethyl-2-hepten-4-ynyl)-N-methyl-1-naphthalenemethanamine hydrochloride], the Solubility in ethanol entry is “soluble” and the Solubility in water result is “slightly soluble”. Moreover, the Solubility in methanol entry (methanol) is recorded as “freely soluble”. Further, the “Solubility in methylene chloride” value (methylene chloride) is listed as “freely soluble”.

Regarding `C=C1CCN([C@H](C)[C@](O)(Cn2cncn2)c2ccc(F)cc2F)CC1` [Efinaconazole, (2R,3R)-2-(2,4-difluorophenyl)-3-(4-methylenepiperidin-1yl)-1-(1H-1,2,4-triazol-1-yl)butan-2ol], the Solubility in water result was “practically insoluble”.

As to `OB1OCc2cc(F)ccc21` [Tavaborole, 5-fluoro-1,3-dihydro-1-hydroxy-2,1-benzoxaborole], the Solubility in ethanol entry is “freely soluble” and the Solubility in water entry is “slightly soluble”. For the same molecule, the “Solubility in propylene glycol” value (propylene glycol) was “freely soluble”.
